{
  "source": "patent US5672603A",
  "about": "“Apoptosis regulating composition” (Otsuka Pharmaceutical Co., Ltd., priority 1991, dated 1997)",
  "key": {"HL-60 cells": {"tested_on": "HL-60 cells", "test": "Differentiation of HL-60 cells (Giemsa and esterase staining)", "type": "cell-based, human", "conditions": "day 27", "description": "The concentration of HL-60 cells was adjusted to 1×10^5 cells/ml using RPMI-1640 medium (GIBCO) supplemented with 10% of FCS (fetal calf serum; GIBCO).\nGiemsa stain solution was prepared by diluting Giemsa reagent (Merck) 50-100 times with phosphate buffer (pH 6.4).\nA reagent for esterase staining (Muto Kagaku) was used according to the naphthol AS-D chloroacetate method.\nHL-60 cells prepared as described above under (1) were cultivated in the same manner as in a). Cells collected on day 27 were placed on a slide glass and subjected to Giemsa staining, followed by morphological observation under a microscope. […] The results of esterase staining by the naphthol AS-D chloroacetate method indicated differentiation of 70-85% of HL-60 cells into granulocytes."}, "[1]": {"tested_on": "Human transformed normal T cells (MT-4), HIV-infected", "test": "Antiretrovirus activity test: viable HIV-infected MT-4 cells", "type": "cell-based", "conditions": "for Number of HIV-infected cells: 3 days, control 105", "description": "Human transformed normal T cells (MT-4) [Nagumo, T. and Hoshino, H., Jpn. J. Cancer Res. 79, 9-11 (1988)] were used to prepare a suspension of 2×10^5 cells/ml in RPMI-1640 medium (Gibco) supplemented 10% FCS (Gibco).\nCompound 1 was dissolved in hydrochloric acid, diluted in the same medium as above, neutralized with 2N NaOH and adjusted to concentrations of 1 μg/ml, 10 μg/ml, 30 μg/ml and 100 μg/ml.\nThe cells prepared in (a) above and the test compound (final concentration: 1 μg/ml, 10 μg/ml, 30 μg/ml or 100 μg/ml) prepared in (b) above were placed in the wells of a 12-well culture plate (Costar). Then, 50 μl/well of HIV suspension was added to infect the cells in each well, followed by 3-day incubation at 37° C. in a 5% carbon dioxide incubator. As a control, the medium without addition of the test compound was used. After completion of incubation, the cell suspension in each well was taken and viable cells were counted."}, "[2]": {"tested_on": "W/BF1 :(NZW×BXSB)F1 mice with spontaneous autoimmune disease", "test": "Life-prolonging effect in autoimmune disease mice", "type": "in vivo", "excerpt": "W/BF1 :(NZW×BXSB)F1 mice are mice with spontaneous autoimmune disease. They are known as an animal model of lupus nephritis accompanied, with high frequency, by hypertension and myocardial infarction [Hang, L. M., et al., J. Exp. Med., 154, 216-221 (1981)]. They develop anti-platelet antibodies with increasing age, showing marked thrombocytopenia, and are used as an animal model of idiopathic thrombocytopenic purpura (ITP) as well [Oyaizu, N., et al., J. Exp. Med. 167, 2017-2077 (1988)]. It has been reported that more than 90% of the model animals die of myocardial infarction or renal failure within 8 months of birth [Ikehara, S., Metabolism and Disease, (Suppl) 26, 169-176 (1989)].\nW/BF1 :(NZW×BXSB)F1 mice were used at the age of 14 weeks (purchased from Kiwa Experimental Animal). Groups of 10 mice were used in each experiment.\nThe mice in respective groups were given a diet (Oriental Yeast), which is usually given to this kind of mice, and water.\nCompound 1 (Lot No. 9D87M) was used as suspended in a 0.5% solution of carborymethylcellulose (CMC, Cellogan). Compound 1 was administered to mice by oral garage in doses of 100 and 300 mg/kg body weight/day for 6 weeks from 14 weeks of age to 20 weeks of age according to the 5-day administration and 2-day cessation schedule. As a control, an untreated group was provided. […] Statistic analysis was performed by the generalized Wilcoxon test with respect to the untreated group.\nIn the figure, the ordinate represents the survival rate (%) and the abscissa represents the age in weeks (14 weeks to 20 weeks)."}, "MRL/Mp-1 pr/1 pr mice": {"tested_on": "MRL/Mp-1 pr/1 pr mice", "test": "Therapeutic effect on autoimmune disease in MRL mice", "type": "in vivo", "conditions": "300 mg/kg oral", "excerpt": "Groups of five female MRL/Mp-1 pr/1 pr mice (purchased at 7 weeks of age from Charles River Japan, Inc.) were used at the age of 19 weeks.\nMice of the above strain are known to spontaneously develop autoimmune diseases such as human systemic lupus erythematosus (SLE)-like immune complex glomerulonephritis, lymphoma, vasculitis and polyarthritis (Theofilopolos, A. and Dixon, F. J., Adv. Immunology, 37, 269 (1985); Murphy, E. D., Roths, J. B., Autoimmunity and lymphoproliferation, Elsevier North Holland, N.Y., 207-221 (1978); Taniguchi, Y., Gendai Iryo, 21, 131 (1989); Abe, C.).\nMice in both the Compound 1-treated group and the control group (untreated group) were given a mouse diet (Oriental Yeast) and water.\nCompound 1 was used as suspended in 0.5% carboxymethytcellulose (CMC, Dai-ichi Kogyo Seiyaku Co., Ltd.) solution.\nCompound 1 was administered by oral garage in a dose of 300 mg/kg body weight daily from the age of 19 weeks to the age of 25 weeks according to the 5-day administration and 2-day cessation schedule (Compound 1-treated group).\nMice in the respective groups were examined for changes in urinary protein, lymphoma diameter, vasculitis of the auricle, and loss of hair."}, "B16 melanoma cells": {"tested_on": "B16 melanoma cells", "test": "Effect on experimental model of pulmonary metastasis of B16 melanoma cells", "type": "in vivo, mouse (C57BL/6 mice)", "conditions": "for No. of colonies in lungs, Mean: control 86.7; for No. of colonies in lungs, individual mice: 4 days", "description": "B16 mouse melanoma cells [Koren, S. and Fleischmann, W. R., J. Interferon Research, i, 473-482 (198)], 2×10^6 cells, were suspended in Eagle's MEM medium (Nissui Pharmaceutical Co., Ltd.) supplemented with 10% FBS (Gibco) to which 3 or 10 μg/ml of Compound 1 was previously added or not added. The suspension was cultured in a 75-cm^2 flask (Corning) in an incubator (National Appliance Model 15300) at 37° C. under 5% carbon dioxide for 4 days. Then, the cells were washed with Dulbecco's PBS solution (Nissui pharmaceutical Co., Ltd.), and 0.05% trypsin (Flow Laboratories) was added to detach the cells from the flask. The cells were washed centrifugally (Hitachi 05PR-22, 1200 rpm, 5 minutes) twice and after addition of 0.2% trypan blue (Wako Pure Chemical Industries Ltd.), viable cells were counted using a hemocytometer (No. J7796, Kayagaki Works) and the cells were diluted with Hank's solution (Flow Laboratories)to a concentration of 5×10^6 cells/ml.\nThe cells obtained as above were transplanted, in a population of 3×10^5 cells each, into groups of 7 C57BL/6 mice (7 weeks old, female, purchased from Charles River Japan, Inc.) through the tail vein. Twelve days later, the mice were killed by cervical dislocation and the number of colonies metastatized to the lungs was determined."}},
  "note": "Where “and” joins values, the source holds several entries; their conditions need not be identical. Equal entries are not always repeated. Entries after “also recorded” stand apart in the source; their conditions may differ.",
  "data": [
    {"smiles": "COc1ccc(C(=O)N2CCN(c3ccc4c(c3)CCC(=O)N4)CC2)cc1OC", "note": "[Compound 1, 6-[4-(3,4-Dimethoxybenzoyl)-1-piperazinyl]-3,4-dihydrocarbostyril]", "values": [
      {"measurement": "Morphological change, Giemsa staining", "setting": "HL-60 cells", "value": "differentiation into cells with granule was observed"},
      {"measurement": "Differentiation of HL-60 cells into granulocytes (esterase staining)", "setting": "HL-60 cells; naphthol AS-D chloroacetate method", "value": "70-85%"},
      {"measurement": "Inhibition of HIV-infected cell growth (in words)", "setting": "[1]", "value": "inhibits cell growth"},
      {"measurement": "Number of HIV-infected cells", "setting": "[1]; 1 μg/ml", "value": "100 ×10^4"},
      {"measurement": "Number of HIV-infected cells", "setting": "[1]; 10 μg/ml", "value": "88 ×10^4"},
      {"measurement": "Number of HIV-infected cells", "setting": "[1]; 30 μg/ml", "value": "78 ×10^4"},
      {"measurement": "Number of HIV-infected cells", "setting": "[1]; 100 μg/ml", "value": "85 ×10^4"},
      {"measurement": "Deaths till 20 weeks of age", "setting": "[2]; 100 mg/kg/day oral, untreated: two, one and three dead at 17, 18, 19 weeks", "value": "no death occurred"},
      {"measurement": "Animals found dead at 18 weeks of age", "setting": "[2]; 300 mg/kg/day oral, groups of 10", "value": "two"},
      {"measurement": "Life-prolonging effect (in words)", "setting": "[2]; 100 and 300 mg/kg/day oral", "value": "significant life-prolonging effect"},
      {"measurement": "Urinary protein", "setting": "MRL/Mp-1 pr/1 pr mice; 19 to 25 weeks of age, vs control", "value": "tendency of inhibition of the increase in urinary protein"},
      {"measurement": "Loss of hair", "setting": "MRL/Mp-1 pr/1 pr mice; FIG. 8, vs control", "value": "improvements in vasculitis and loss of hair"},
      {"measurement": "Vasculitis", "setting": "MRL/Mp-1 pr/1 pr mice; FIG. 8, vs control", "value": "improvements in vasculitis"},
      {"measurement": "Lymphoma size, diameter", "setting": "MRL/Mp-1 pr/1 pr mice; control 9.0±0.8 mm", "value": "7.8±1.3", "unit": "mm"},
      {"measurement": "Lymphoma (in words)", "setting": "MRL/Mp-1 pr/1 pr mice; vs control", "value": "enlargement of lymphoma was slightly inhibited; also recorded: reduction in lymphoma"},
      {"measurement": "No. of colonies in lungs, Mean", "setting": "B16 melanoma cells; 3 μg/ml, *P < 0.05", "value": 10.0, "unit": "colonies"},
      {"measurement": "No. of colonies in lungs, Mean", "setting": "B16 melanoma cells; 10 μg/ml", "value": 34.7, "unit": "colonies"},
      {"measurement": "Inhibition of pulmonary metastasis (in words)", "setting": "B16 melanoma cells; 3 or 10 μg/ml", "value": "evident inhibition of pulmonary metastasis"},
      {"measurement": "No. of colonies in lungs, individual mice", "setting": "B16 melanoma cells; cells pre-incubated with 3 μg/ml", "value": "14 colonies and 7 colonies and 11 colonies and 6 colonies and 8 colonies and 24 colonies and 0 colonies"},
      {"measurement": "No. of colonies in lungs, individual mice", "setting": "B16 melanoma cells; cells pre-incubated with 10 μg/ml", "value": "17 colonies and 43 colonies (2×) and 65 colonies and 7 colonies and 46 colonies and 22 colonies"}
    ]}
  ]
}
